“And” between values parts separate entries of the source, which are not always exact repeats. Equal values may be shown once.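 Values below derive from 48-hour exposures of cells grown in 96-well plates, with endpoints linearly interpolated between the two concentrations bracketing the appropriate inhibition level. The concentration for 50% growth inhibition is given as GI50. TGI is the concentration that stops growth completely.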
Assays:
Assay in all cases: NCI-60 cell line screen, 48 h
RPMI-8226 leukemia = test system: RPMI-8226 leukemia
SF-539 CNS = test system: SF-539 CNS
SR leukemia = test system: SR leukemia
NCI-H23 lung = test system: NCI-H23 lung
SK-OV-3 ovarian = test system: SK-OV-3 ovarian
SK-MEL-28 melanoma = test system: SK-MEL-28 melanoma
UACC-62 melanoma = test system: UACC-62 melanoma
OVCAR-4 ovarian = test system: OVCAR-4 ovarian
LOX IMVI melanoma = test system: LOX IMVI melanoma
NCI/ADR-RES ovarian = test system: NCI/ADR-RES ovarian

SMILES	GI50 (RPMI-8226 leukemia)	TGI (RPMI-8226 leukemia) [µM]	GI50 (SF-539 CNS) [µM]	TGI (SF-539 CNS)	GI50 (SR leukemia) [µM]	TGI (SR leukemia) [µM]	GI50 (NCI-H23 lung)	TGI (NCI-H23 lung) [µM]	GI50 (SK-OV-3 ovarian) [µM]	TGI (SK-OV-3 ovarian) [µM]	GI50 (SK-MEL-28 melanoma)	TGI (SK-MEL-28 melanoma) [µM]	GI50 (UACC-62 melanoma) [µM]	TGI (UACC-62 melanoma) [µM]	GI50 (OVCAR-4 ovarian) [µM]	TGI (OVCAR-4 ovarian) [µM]	GI50 (LOX IMVI melanoma)	TGI (LOX IMVI melanoma) [µM]	GI50 (NCI/ADR-RES ovarian) [µM]	TGI (NCI/ADR-RES ovarian) [µM]
CC(C)(C)OC(=O)CN1CCc2c(sc3ncnc(N/N=C/c4cccc5ccccc45)c23)C1	1.05 µM	4.22	1.73	7.02 µM	1.46	15.2	4.19 µM	17.4	4.48	26.1	4.41 µM	15.7	1.32	5.48	2.58	14.1	1.72 µM	5.93	3.55	14.5
O=S(=O)(O)c1cc(N=Nc2cc(S(=O)(=O)O)c3cccnc3c2O)ccc1/C=C/c1ccc(N=Nc2cc(S(=O)(=O)O)c3cccnc3c2O)cc1S(=O)(=O)O	–	> 100	–	> 100 µM	–	51.1	–	> 100	–	> 100	–	> 100	–	> 100	–	> 100	–	> 100	–	> 100
NC(=S)N/N=C\c1nccc2c(N)cccc12	0.223 µM	> 82.8	0.146	0.757 µM	0.0398	> 35.8	0.224 µM	> 94.8	0.541	> 100	1.16 µM	> 100	0.264	1.94	0.414	> 100	0.292 µM	–	0.375	17.3
CC(C)(C)[Si](C)(C)OCC1C=CC(n2cnc3c(N)ncnc32)O1 (stereo not drawn)	–	58.3	–	> 81.5 µM	–	60.8	–	> 100	–	> 100	–	> 100	–	> 69.5	–	> 100	–	> 64	–	> 100
CS(=O)(=O)CCn1c(=O)c(Oc2ccc(F)cc2F)cc2cnc(NC3CCOCC3)nc21	> 25 µM	> 25	> 25	> 25 µM	> 25	> 25	> 25 µM	> 25	> 25	> 25	> 25 µM	> 25	> 25	> 25	> 25	> 25	> 25 µM	> 25	> 25	> 25
C[C@@H](Oc1ccc2[nH]nc(/C=C/c3cnn(CCO)c3)c2c1)c1c(Cl)cncc1Cl	1.54 µM	4.41	0.035	0.268 µM	0.0208	1.1	0.0796 µM	2.18	1.29	6.15	1.72 µM	4.85	1.65	3.81	1.89	8.78	0.0593 µM	0.281	0.697	3.81
OCC#Cc1ccccc1C#Cc1ccc(C#Cc2ccccc2C#CCO)s1	22.2 µM	49.1	18.1	34.2 µM	36.9	> 100	18.3 µM	33.4	15.9	34.4	20.5 µM	46.8	19.5	43.4	26.4	> 100	20.4 µM	53.6	21.1	36
CCOC(=O)N[C@H]1CCc2c(Br)c(OC)c(OC)c(OC)c2-c2ccc(SC)c(=O)cc21	< 0.01 µM	> 33.7	< 0.01	< 0.0106 µM	< 0.01	> 37.3	< 0.01 µM	24	< 0.01	59.4	8.06 µM	23.4	< 0.01	14.2	0.0608	> 53.5	< 0.01 µM	12.5	0.025	7.58
CN1CCN(CCNc2ccc(CO)c3sc4ccccc4c(=O)c23)CC1	–	23.4	–	10.7 µM	–	19	–	17.6	3.17	14	–	9.02	–	9.93	–	13.3	2.59 µM	8.27	2.56	14.3
O=C(O)c1cc(Cc2ccc(O)c(C(=O)O)c2)ccc1O (tested in a mixture with another compound)	2.62 µM	> 100	11.4	26.6 µM	1.41	8.67	5.31 µM	20	11.4	24.6	10.1 µM	26.8	4.73	19.9	6.08	29.2	2.99 µM	15.7	6.48	21
C[C@]12C3CC[C@@]4(CO)C[C@]3(CCC1[C@](C)(C(=O)O)CC[C@@H]2O)CC4=O (stereo partly drawn)	> 100 µM	> 100	> 100	> 100 µM	> 100	> 100	> 100 µM	> 100	> 100	> 100	> 100 µM	> 100	> 100	> 100	> 100	> 100	> 100 µM	> 100	> 100	> 100
COc1ccc(-c2nnc(N3CCN(C(=O)CN4CCN(c5ccc(Cl)cc5)CC4)CC3)nc2-c2ccc(OC)cc2)cc1	5.19 µM	> 100	15.1	74.8 µM	31.5	> 100	24.4 µM	> 100	36.6	> 100	> 100 µM	> 100	31.5	> 100	> 100	> 100	15.6 µM	> 100	20.7	> 100
NC(Cc1ccnnc1)C(=O)O (stereo not drawn)	–	> 100	–	> 100 µM	–	> 100	–	> 100	–	> 100	–	> 100	–	> 100	–	> 100	–	> 100	–	> 100
C(=C\c1nccc2c1[nH]c1ccccc12)/c1ccccc1	1.07 µM	3.92	1.98	4.51 µM	1.11	6.84	3.78 µM	> 100	2.97	13.4	4.78 µM	28.4	3.48	23.9	3.18	> 100	2.99 µM	12.2	3.1	20.3
Cc1cc(C)cc(Nc2ccc([N+](=O)[O-])c(NCCN3CCOCC3)n2)c1	0.00455 µM and 0.0366 µM	> 100	0.0016	0.00587 µM and 0.0564 µM	–	> 100	0.00739 µM and 0.0275 µM	> 100	–	> 100	0.672 µM and 2.75 µM	> 100	–	> 100	0.002	> 100	0.0159 µM and 0.0114 µM	> 100	0.000646	–
COc1cc(NCC2COc3c(ccc(OC)c3OC)C2=O)c([N+](=O)[O-])cc1OC (stereo not drawn)	–	> 100	–	> 100 µM	–	> 100	–	> 100	–	> 100	–	> 100	–	> 100	–	> 100	–	> 100	–	> 100

From PubChem BioAssay (NCI)
